Measurements: patent US20200383327A1, “METHOD OF IMPROVING PLANT PERFORMANCE” (The State of Israel, Ministry of Agriculture & Rural …, priority 2018, published 2020)
Entries after “also recorded” stand apart in the source; their conditions may differ.

Tests used:
Format in all cases: in vivo
Oidium neolycopersici = experiment: Oidium powdery mildew on tomato plants; details: 24 days after treatment
Experimental: The Phe (P) solution was applied by spraying and by drench on the tomato plants at 3 days before and 4 hours before incubation in the greenhouse. Incidence of Oidium powdery mildew was evaluated 24 days after treatment. […] The Phe and shatakh 90 solutions were applied by spraying on the tomato plants at 3 days before and 4 hours before incubation in the greenhouse. Incidence of Oidium powdery mildew was evaluated 24 days after treatment.
(§1) Conidia of Oidium neolycopersici were collected from leaves of a diseased plant, suspended in water and sprayed on the tomato plants. The plants were kept in a greenhouse with 18-28° C. Disease severity of Oidium powdery mildew was evaluated on a scale of 0-100% where 100=whole canopy covered by disease symptoms.

Botrytis = experiment: Resistance of petunia plants to Botrytis, increasing Phe concentrations
Experimental: The effect of treating petunia plants with increased concentrations of Phe was assessed: plants were either sprayed or drenched with increasing concentration of Phe three days prior to infection with Botrytis and on the day of infection. The infected area was followed for 7-10 days after infection.

Tuta absoluta = experiment: Tomato leaf miner damage on tomato plants, natural infestation in greenhouse
Experimental: FIGS. 3A-3E are images and bar graphs showing the effect of 4 mM of phenylalanine applied by drenching or spraying on the severity of […] in tomato, 13 days post treatment. FIG. 3A—an image showing the damage caused by the tomato leaf miner, the insect moth Tuta absoluta on tomato leaflet. FIG. 3B—a vertical bar graph showing severity of damage of Tuta absoluta on tomato leaves treated with drench or spray of 4 mM solution phenylalanine. Disease was evaluated on a 0-100% severity of symptoms coverage and calculation of area under disease progress curve (AUDPC) 13 days after treatment. […] Symptoms incidence per plant was evaluated 30 days after treatment. […] FIG. 3C—a vertical bar graph showing the effect of 4 mM Phe solution on the incidence of tomato leaf miner on tomato plants. The Phe solution was applied by spraying and by drench on the tomato plants at 3 days before and 4 hours before incubation in the greenhouse. Infection was natural. FIG. 3D—a vertical bar graph showing the effect of 4 mM Phe solution on the incidence of tomato leaf miner on tomato plants. The Phe solution was applied by spraying and by drench on the tomato plants at 3 days before and 4 hours before incubation in the greenhouse. Infection was natural. Symptoms incidences per plant at large size and at smaller size (up to 1 cm) were evaluated 30 days after treatment. […] FIG. 3E—a vertical bar graph showing the effect of 4 mM Phe solution on the rate of tomato leaf miner symptoms on tomato plants. The Phe solution was applied by spraying and by drench on the tomato plants at 3 days before and 4 hours before incubation in the greenhouse. Infection was natural. Symptoms incidences per plant at large size and at smaller size (up to 1 cm) were evaluated 30 days after treatment and the percent of large symptoms was calculated.
Tomato plants were grown in pots in a nonheated greenhouse where temperatures were 17-32° C. […] Damage of the pest was evaluated according to a 0-100% severity scale where 0=no symptoms followed by a calculation of area under disease progress curve (AUDPC) 13 days after treatment.

Oidiopsis sicula = experiment: Oidiopsis powdery mildew on tomato plants; details: 4 mM Phe solution, drench or spray, each treatment; 24 days after treatment; FIG. 12
Experimental: FIG. 12 is a bar graph showing the effect of 4 mM Phe solution on the severity of Oidiopsis sicula powdery mildew on tomato plants. The Phe solution was applied by spraying and by drench on the tomato plants at 3 days before and 4 hours before incubation in the greenhouse Incidence of Oidiopsis powdery mildew was evaluated 24 days after treatment.
as §1, with “Oidiopsis sicula” for “Oidium neolycopersici”, “Oidiopsis” for “Oidium”, “100=all leaves” for “100=whole canopy”

Lasiodiplodia theobromae = experiment: Postharvest decay of 'Shelly' mango fruit, wound inoculated; details: for Inhibition of pathogenic activity: postharvest, mango
Experimental: (§2) FIGS. 4A-4B are graphs showing induced resistance of harvested Mango fruit to fungal pathogens. FIG. […] A day later the treated or untreated fruits were wound inoculated on four spots in each fruit with 7 μl of Lasiodiplodia theobromas conidia suspension (10^6 conidia/ml) and the decay area was monitored for 7 days post inoculation (dpi). FIG. […] A day later the treated or untreated fruits were wound inoculated on four spots in each fruit with 7 μl of Colletotrichum gloeosporioides conidia suspension (10^6 conidia/ml) and the decay area was monitored for 14 days post inoculation (dpi).

[1] = tested on: Colletotrichum gloeosporioides; experiment: as above; details: for Inhibition of pathogenic activity: postharvest, mango
Experimental: as §2

[2] = Mango fruit decay in cold storage after post-harvest treatment
Experimental: FIGS. 19A-19G are images and graphs showing the effect of Phe solution on fruit post-harvest rotting under cold temperature resistance. (19A-19B) are images showing post-harvest control and treated mango fruits, respectively, stored in 7° C. […] (19C-19D) are vertical bar graphs showing indices of spots (19C) and pitting (19D) of mango fruits infected by Colletotrichum or Lasiodiplodia under 7° C. (19E-19G) are vertical bar graph showing […] decay was shown at 7° C., and side decay and total decay were shown at 7° C. and 10° C.
Mango fruits were treated with Phe solution post-harvest. Fruits were stored in either 7° C. or 10° C., and decay was inspected and documented. Post-harvest treatment as described hereinabove reduced stem decay, side decay, and total decay (FIGS. 19E-19G). […] Fruits were both treated with AAA and infested with […] post-harvest. […] (FIGS. 19C-19D).

[3] = Number of flowers and stigmas of Petunia plants
Experimental: FIGS. 22A-22C are vertical bar graphs showing the effect of Phe solution on the number of flowers per plant. Petunia plants were treated once a week for 5 weeks with Phe solution (2 mM, 6 mM, 15 mM, 35 mM, or none, i.e., control). Numbers of flowers were counted and documented over a period of 7 weeks for Petunia ‘easy-rider’ strain (FIG. 22A) and Petunia ‘white dreams’ strain (FIG. 22B).

[4] = postharvest treatment of 'Shelly' mango, FIG. 4

Structure (SMILES): N[C@@H](Cc1ccccc1)C(=O)O [Phe, Phenylalanine]
- Severity of Oidium powdery mildew on tomato leaves (Oidium neolycopersici; 4 mM Phe solution, drench or spray, each treatment, FIG. 11A): significantly suppressed
- Severity of Oidium powdery mildew on tomato leaves (Oidium neolycopersici; spray, 4 mM Phe, 0.1% Shatah 90, or combination, FIG. 11B): significantly suppressed
- Protection against Botrytis (Botrytis; 6 mM Phe, sprayed or drenched, petunia, 7-10 days after infection): might not be effective enough
- Plant health and pathogen status (Botrytis; 15 and 35 mM Phe, drenched, petunia): healthy, pathogen free
- Resistance to Botrytis (Botrytis; 35 and 50 mM Phe, sprayed, petunia, FIG. 7): much higher resistance to Botrytis
- Phe concentration at which resistance to Botrytis was apparent (Botrytis; drenching Phe, FIGS. 8A-8B): ≥ 6 mM
- Phe concentration at which resistance to Botrytis was apparent (Botrytis; sprayed Phe, FIGS. 7A-7B): ≥ 6 mM
- Severity of damage of the moth Tuta absoluta leaf miner on tomato leaves (Tuta absoluta; 4 mM Phe solution, drench or spray, each treatment, FIG. 3C): significantly suppressed
- Leaf miner symptoms, small (up to 1 cm long) and large (Tuta absoluta; 4 mM Phe spray and Phe drench, 30 days after treatment, FIG. 3D): suppressed
- Rate (in %) of larger leaf miner symptoms (Tuta absoluta; 4 mM Phe spray and drench, 30 days after treatment, FIG. 3E): reduced
- Severity of Oidiopsis powdery mildew on tomato leaves (Oidiopsis sicula): significantly suppressed
- Inhibition of pathogenic activity (Lasiodiplodia theobromae; 2 mM phenylalanine): did not suffice
- Inhibition of pathogenic activity (Lasiodiplodia theobromae; 4 mM phenylalanine): substantially inhibited the pathogenic activity
- Decay severity in comparison to the untreated control fruits (Lasiodiplodia theobromae; [4]): reduced the decay severity
- Inhibition of pathogenic activity ([1]; 2 mM phenylalanine): did not suffice
- Inhibition of pathogenic activity ([1]; 4 mM phenylalanine): substantially inhibited the pathogenic activity
- Decay severity in comparison to the untreated control fruits [1, 4]: reduced the decay severity
- Stem decay ([2]; post-harvest Phe solution, mango stored at 7° C. or 10° C., FIG. 19E): reduced
- Side decay ([2]; post-harvest Phe solution, mango stored at 7° C. or 10° C., FIG. 19F): reduced
- Total decay ([2]; post-harvest Phe solution, mango stored at 7° C. or 10° C., FIG. 19G): reduced
- Black spots on fruits, control versus treated ([2]; post-harvest mango fruits stored in 7° C., FIGS. 19A-19B): Control fruits were shown to have substantially more black spots
- Number of flowers ([3]; Phe solution once a week for 5 weeks vs control, FIGS. 22A-22B): more flowers
- Number of stigmas ([3]; Phe solution vs control, FIG. 22C): more flowers and stigmas; also recorded: more stigmas compared to control
